{"source": "patent US8192986B2", "about": "“Compositions and methods for treatment of protein misfolding diseases” (Whitehead Institute for Biomedical Research, priority 2004, dated 2012)", "test_system": "yeast cells expressing low levels of huntingtin", "assay": "Huntingtin toxicity in yeast grown in the presence of an ER stress inducer (FIG. 6B)", "type": "cell-based", "conditions": "yeast cells grown in the presence of tunicamycin, low levels of huntingtin expressed", "description": "The unfolded protein response in yeast is depicted in FIG. 6A. […] Conversely, expression of constitutively active IRE1 or HAC (proteins that induce the UPR) ameliorated the toxic effects of high level expression of 103 Q huntingtin in yeast (FIGS. 6D and 6E)."}
{"substance": "tunicamycin", "values": [{"measurement": "huntingtin toxicity in yeast cells", "value": "enhanced toxicity"}]}
